From PMC11191095, “QSAR Reveals Decreased Lipophilicity of Polar Residues Determines the Selectivity of Antimicrobial Peptide Activity” (ACS Omega, 2024) come the findings set out here.

Where a SMILES comes first, the peptide text is derived from it. Some results are limits rather than exact numbers.

In data set [1] the test system is eight Gram-negative, four Gram-positive bacteria, and six fungi. The data set is described as follows: Antimicrobial screening against panel of 18 pathogens. The note with it: 128 to 2 μg/mL, 37 °C, 20 h. Format: cell-based. As to the method:
Antimicrobial activity was evaluated against a panel of 18 pathogens consisting of eight Gram-negative strains (E. coli NCTC 12923, E. coli LEC001, Pseudomonas aeruginosa PAO1, P. aeruginosa NCTC 13437, Acinetobacter baumannii ATCC 17978, A. baumannii AYE, Klebsiella pneumoniae M6, K. pneumoniae NCTC 13368), four Gram-positive strains (Staphylococcus aureus ATCC 9144, S. aureus NCTC 13616, S. aureus USA300, S. aureus 1199B) and six fungi (Candida auris TDG 1912, C. albicans NCPF 8018, C. krusei NCPF 3876, C. tropicalis NCPF 8760, and C. parapsilosis NCPF 3209). Pathogens were grown in noncation adjusted Mueller Hinton broth (MHB, for bacteria) or Roswell Park Memorial Institute (RPMI 1640) + 2% glucose (for fungi) at 37 °C with 180 rpm shaking and maintained on solid media (tryptic soy agar for bacteria and Sabouraud dextrose agar for fungi). For an antibiogram, see Suppl.
The 46 peptides were serially diluted (128 to 2 μg/mL) in media down polypropylene 96-well plates. […] Plates were incubated at 37 °C for 20 h, and the optical density was determined spectrophotometrically at 600 nm. Minimum inhibition concentrations (MICs) were determined from a minimum of three biological repeats and are reported in μg/mL as well as μM. […]

The test system of the next data set is C. albicans NCPF 3281. The data set can be described thus: microbe, parasite or virus in culture. Format: cell-based. Conditions: NCPF 3281, 20 h. Summed up:
(§1)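 Peptides 128→2 μg/mL, 2-fold series; inoculum ~5 × 10^5 CFU/mL from overnight culture (OD600 0.01, mixed 1:1). MHB non-cation-adjusted for bacteria, RPMI 1640 + 2% glucose for fungi. 37 °C, 20 h, OD600. MIC50/MIC90 at 50%/90% inhibition; n ≥ 3.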

Data set [2] relates to C. parapsilosis NCPF 3209. The data set is described as follows: microbe, parasite or virus in culture. Conditions: NCPF 3209, 20 h. Format: cell-based. In short, it runs like this:
as §1

The subject of another data set is C. glabrata NCPF 8018. The data set can be described thus: microbe, parasite or virus in culture. The note with it: NCPF 8018, 20 h. The class given is cell-based. Summed up:
as §1

The next data set concerns C. krusei NCPF 3876. The data set is described as follows: microbe, parasite or virus in culture. Conditions: NCPF 3876, 20 h. The class given is cell-based. Summed up:
as §1

The subject of another data set is C. tropicalis NCPF 8760. The data set can be described thus: microbe, parasite or virus in culture. The class given is cell-based. The note with it: NCPF 8760, 20 h. Summed up: as §1
Data set [3] is described as follows: RP-HPLC ElutionTime as indicator of hydrophobicity. The class given is physicochemical. Conditions: indicator of overall hydrophobicity; semipreparative RP-HPLC, Waters SymmetryPrep C8, water/ACN gradient with 0.1% TFA, 8 mL/min, 25 °C, 254 nm. Here is the method: Crude peptides, made up to 10 mg/mL in 0.1% TFA (v/v) in ddH2O, were subjected to preparative RP-HPLC purification on an Agilent 1100 system, with elution in gradient. A gradient program at a flow rate of 8 mL/min and column temperature of 25 °C was used to achieve elution with solvent A (0.1% trifluoroacetic acid (TFA) in water (v/v)) and solvent B (0.1% TFA in 100% acetonitrile (ACN) (v/v)). The elution program was as follows: (1) At 0–73 min, 100% solvent A to 0% solvent B; (2) at 73–77 min, 40% solvent A to 60% solvent B; (3) at 77–93 min, 10% solvent A to 90% solvent B; (4) at 93–105 min, 100% solvent A to 0% solvent B. Data collected were the retention time of the major fraction for each peptide in minutes as RP-HPLC ElutionTime (ElutionTime). Absorbance was detected at 254 nm, and fractions were collected manually. The fractions collected were spun in a speed-vac to remove ACN and the contents lyophilized. After freeze-drying for 24 h the peptides were dissolved in 10% (v/v) acetic acid before being lyophilized for a second time and then stored at −20 °C.
Molecular descriptors used in the QSAR analysis included: charge, sequence length, overall lipophilicity (L), lipophilicity contributed by the polar or nonpolar residues (LP and LN), summation of the side chain surface areas of the total peptide, polar or nonpolar residues (SCSA, SCSAP, and SCSAN), the molecular weight of the entire peptide, polar or nonpolar residues (Mw, MwP, and MwN), count of small lipophilic residues (CSL) or aromatic residues (CAR), the total number of hydrogen bond donor and acceptor centers (HBtot, HBdon, and HBacc), the total number of rotatable bonds (#RotBonds) and various amphipathicity descriptors (LP/L, LP/LN, L/LN, Q/L, Q/LN, SCSAP/SCSAN, MwP/MwN, Q/CSL, and Q/CAR) (Suppl. Table S1). Experimentally determined characteristics included ElutionTime as an indicator of overall peptide hydrophobicity and the CD structure of each peptide determined in POPG/POPE lipids representing Gram-negative membranes, POPG lipids for Gram-positive membranes, and SDS micelles for fungal membranes. AMPs with an α-helical structure were labeled 4, β-sheets were labeled 3, β-turns and mixed conformations were labeled 2, and disordered structures were labeled 1.

As to `CC(C)[C@H](NC(=O)[C@H](CS)NC(=O)[C@@H](N)CCCNC(=N)N)C(=O)N[C@@H](CS)C(=O)N[C@H](C(=O)N[C@@H](CCCNC(=N)N)C(=O)NCC(=O)N[C@@H](Cc1ccccc1)C(=O)N[C@@H](CS)C(=O)O)[C@@H](C)O` [ThetaDefA] (H-RCVCTRGFC-OH; N-terminus and C-terminus assumed), in data set [1], the “antimicrobial activity in the screens” value is reported as “no activity”. The “Modal MIC50” value (with C. albicans NCPF 3281; in data set [2]; in the data set on C. glabrata NCPF 8018; in the data set on C. krusei NCPF 3876; with C. tropicalis NCPF 8760) was above 122.6 µM throughout. The “Modal MIC90” value (with C. albicans NCPF 3281; in data set [2]; in the data set with C. glabrata NCPF 8018; in the data set on C. krusei NCPF 3876; in the data set with C. tropicalis NCPF 8760) was above 122.6 µM throughout. Moreover, the “ElutionTime (RP-HPLC retention time of major fraction)” value in data set [3] worked out at 22 min.
With `CC(C)[C@H](NC(=O)CNC(=O)[C@H](CCCNC(=N)N)NC(=O)[C@H](CCCNC(=N)N)NC(=O)[C@H](CS)NC(=O)[C@@H](NC(=O)[C@H](CS)NC(=O)[C@@H](N)CCCNC(=N)N)C(C)C)C(=O)N[C@@H](CS)C(=O)O` [ThetaDefB] (H-RCVCRRGVC-OH; N-terminus and C-terminus assumed), the “antimicrobial activity in the screens” value in data set [1] is given as “no activity”. Moreover, the “Modal MIC50” value (in the data set with C. albicans NCPF 3281; in data set [2]; in the data set on C. glabrata NCPF 8018; in the data set on C. krusei NCPF 3876; in the data set on C. tropicalis NCPF 8760) was above 116.4 µM in each case. Moreover, the “Modal MIC90” value (in the data set on C. albicans NCPF 3281; in data set [2]; in the data set with C. glabrata NCPF 8018; with C. krusei NCPF 3876; in the data set on C. tropicalis NCPF 8760) was above 116.4 µM each time. The “ElutionTime (RP-HPLC retention time of major fraction)” value in data set [3] came to 20 min.
